In patent US20100160454A1, “ANTIMICROBIAL AGENTS, COMPOSITIONS AND PRODUCTS CONTAINING THE SAME, AND METHODS OF USING THE COMPOSITIONS AND PRODUCTS” (Eastman Chemical Company, priority 2008, published 2010):

Tests used:
Assay in all cases: Microbiological challenge testing in BPW broth, graded subculture counts
Type in all cases: cell-based
[1] = tested on: Burkholderia cepacia Wild type; settings: B. cepacia
Outline: (§1)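 Strains grown in TSB with 1% dextrose at 35 °C for ≥96 h. Inoculum added to BPW broth with 1% dextrose, with or without test material (w/v), to 10^5–10^6 CFU/mL at time zero. Counts by spread-plating serial 1:10 dilutions in pH 7.2 phosphate buffer on PCA, incubated at 35 °C for ≥48 h.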

[2] = tested on: Aeromonas sp. Wild type
Outline: as §1

[3] = tested on: Streptococcus mutans ATCC 35668
Outline: as §1

[4] = tested on: Staphylococcus aureus ATCC 25923; settings: S. aureus
Outline: as §1

[5] = tested on: Pseudomonas aeruginosa Wild type; settings: P. aeruginosa
Outline: as §1

[6] = tested on: Bacillus subtilis Wild type
Outline: as §1

With `OCC1CCC(CO)CC1` (stereo not drawn) [1,4-CHDM, 1,4-cyclohexanedimethanol] the Grade ([1]; 0.5% (wt/vol), 3 day) was 4 (1000 to 10,000 colonies countable (thus 10,000 CFU/mL to 100,000 CFU/mL)), the Grade ([1]; 0.5% (wt/vol), 14 day) was 4 (1000 to 10,000 colonies countable (thus 10,000 CFU/mL to 100,000 CFU/mL)) and the Grade ([1]; 0.5% (wt/vol), 30 day) was 4 (1000 to 10,000 colonies countable (thus 10,000 CFU/mL to 100,000 CFU/mL)). The Grade ([1]; 1.25% (wt/vol), 3 day) was 4 (1000 to 10,000 colonies countable (thus 10,000 CFU/mL to 100,000 CFU/mL)), the Grade ([1]; 1.25% (wt/vol), 14 day) was 2 (52 to 100 colonies counted (thus 520 to 1000 CFU/mL)) and the Grade ([1]; 1.25% (wt/vol), 30 day) was 4 (1000 to 10,000 colonies countable (thus 10,000 CFU/mL to 100,000 CFU/mL)). For the same molecule, the Grade ([1]; 2.5% (wt/vol), 3 day) was 0, the Grade ([1]; 2.5% (wt/vol), 14 day) was 0 and the Grade ([1]; 2.5% (wt/vol), 30 day) was 0. For the same molecule, the Grade ([1]; 5.0% (wt/vol), 3 day) was 0, the Grade ([1]; 5.0% (wt/vol), 14 day) was 0 and the Grade ([1]; 5.0% (wt/vol), 30 day) was 0. For the same molecule, the “Aeromonas sp growth grade, 3 day” value ([2]; 0.5% weight/volume) was 5 (More than 10,000 colonies estimated (thus more than 100,000 CFU/mL)), the “Aeromonas sp growth grade, 14 day” value ([2]; 0.5% weight/volume) was 4 (1000 to 10,000 colonies countable (thus 10,000 CFU/mL to 100,000 CFU/mL)) and the “Aeromonas sp growth grade, 30 day” value ([2]; 0.5% weight/volume) was 4 (1000 to 10,000 colonies countable (thus 10,000 CFU/mL to 100,000 CFU/mL)). The “Aeromonas sp growth grade, 3 day” value ([2]; 1.25% weight/volume) was 4 (1000 to 10,000 colonies countable (thus 10,000 CFU/mL to 100,000 CFU/mL)), the “Aeromonas sp growth grade, 14 day” value ([2]; 1.25% weight/volume) was 3 (100 to 1000 colonies (thus 1000 to 10,000 CFU/mL)) and the “Aeromonas sp growth grade, 30 day” value ([2]; 1.25% weight/volume) was 2 (52 to 100 colonies counted (thus 520 to 1000 CFU/mL)). For the same molecule, the “Aeromonas sp growth grade, 3 day” value ([2]; 2.5% weight/volume) was 3 (100 to 1000 colonies (thus 1000 to 10,000 CFU/mL)), the “Aeromonas sp growth grade, 14 day” value ([2]; 2.5% weight/volume) was 1 (0 to 51 colonies counted (thus 10 to 510 CFU/mL based on 0.1-mL sample)) and the “Aeromonas sp growth grade, 30 day” value ([2]; 2.5% weight/volume) was 0. The “Aeromonas sp growth grade, 3 day” value ([2]; 5.0% weight/volume) was 0, the “Aeromonas sp growth grade, 14 day” value ([2]; 5.0% weight/volume) was 0 and the “Aeromonas sp growth grade, 30 day” value ([2]; 5.0% weight/volume) was 0. The “S. mutans growth grade, 3 day” value ([3]; 0.5% weight/volume) was 4 (1000 to 10,000 colonies countable (thus 10,000 CFU/mL to 100,000 CFU/mL)), the “S. mutans growth grade, 13 day” value ([3]; 0.5% weight/volume) was 4 (1000 to 10,000 colonies countable (thus 10,000 CFU/mL to 100,000 CFU/mL)) and the “S. mutans growth grade, 30 day” value ([3]; 0.5% weight/volume) was 4 (1000 to 10,000 colonies countable (thus 10,000 CFU/mL to 100,000 CFU/mL)). The “S. mutans growth grade, 3 day” value ([3]; 1.25% weight/volume) was 4 (1000 to 10,000 colonies countable (thus 10,000 CFU/mL to 100,000 CFU/mL)), the “S. mutans growth grade, 13 day” value ([3]; 1.25% weight/volume) was 2 (52 to 100 colonies counted (thus 520 to 1000 CFU/mL)) and the “S. mutans growth grade, 30 day” value ([3]; 1.25% weight/volume) was 2 (52 to 100 colonies counted (thus 520 to 1000 CFU/mL)). The “S. mutans growth grade, 3 day” value ([3]; 2.5% weight/volume) was 2 (52 to 100 colonies counted (thus 520 to 1000 CFU/mL)), the “S. mutans growth grade, 13 day” value ([3]; 2.5% weight/volume) was 0 and the “S. mutans growth grade, 30 day” value ([3]; 2.5% weight/volume) was 0. For the same molecule, the “S. mutans growth grade, 3 day” value ([3]; 5.0% weight/volume) was 0, the “S. mutans growth grade, 13 day” value ([3]; 5.0% weight/volume) was 0 and the “S. mutans growth grade, 30 day” value ([3]; 5.0% weight/volume) was 0. For the same molecule, the Grade ([4]; 0.5% (wt/vol), 3 day) was 4 (1000 to 10,000 colonies countable (thus 10,000 CFU/mL to 100,000 CFU/mL)), the Grade ([4]; 0.5% (wt/vol), 14 day) was 4 (1000 to 10,000 colonies countable (thus 10,000 CFU/mL to 100,000 CFU/mL)) and the Grade ([4]; 0.5% (wt/vol), 30 day) was 4 (1000 to 10,000 colonies countable (thus 10,000 CFU/mL to 100,000 CFU/mL)). For the same molecule, the Grade ([4]; 1.25% (wt/vol), 3 day) was 3 (100 to 1000 colonies (thus 1000 to 10,000 CFU/mL)), the Grade ([4]; 1.25% (wt/vol), 14 day) was 2.7 and the Grade ([4]; 1.25% (wt/vol), 30 day) was 4 (1000 to 10,000 colonies countable (thus 10,000 CFU/mL to 100,000 CFU/mL)). The Grade ([4]; 2.5% (wt/vol), 3 day) was 1.7, the Grade ([4]; 2.5% (wt/vol), 14 day) was 1 (0 to 51 colonies counted (thus 10 to 510 CFU/mL based on 0.1-mL sample)) and the Grade ([4]; 2.5% (wt/vol), 30 day) was 0. It also gave a Grade ([4]; 5.0% (wt/vol), 3 day) of 0, a Grade ([4]; 5.0% (wt/vol), 14 day) of 0 and a Grade ([4]; 5.0% (wt/vol), 30 day) of 0. For the same molecule, the Grade ([5]; 0.5% (wt/vol), 3 day) was 4 (1000 to 10,000 colonies countable (thus 10,000 CFU/mL to 100,000 CFU/mL)), the Grade ([5]; 0.5% (wt/vol), 13 day) was 4 (1000 to 10,000 colonies countable (thus 10,000 CFU/mL to 100,000 CFU/mL)) and the Grade ([5]; 0.5% (wt/vol), 30 day) was 4 (1000 to 10,000 colonies countable (thus 10,000 CFU/mL to 100,000 CFU/mL)). The Grade ([5]; 1.25% (wt/vol), 3 day) was 4 (1000 to 10,000 colonies countable (thus 10,000 CFU/mL to 100,000 CFU/mL)), the Grade ([5]; 1.25% (wt/vol), 13 day) was 3 (100 to 1000 colonies (thus 1000 to 10,000 CFU/mL)) and the Grade ([5]; 1.25% (wt/vol), 30 day) was 4 (1000 to 10,000 colonies countable (thus 10,000 CFU/mL to 100,000 CFU/mL)). The Grade ([5]; 2.5% (wt/vol), 3 day) was 3 (100 to 1000 colonies (thus 1000 to 10,000 CFU/mL)), the Grade ([5]; 2.5% (wt/vol), 13 day) was 2 (52 to 100 colonies counted (thus 520 to 1000 CFU/mL)) and the Grade ([5]; 2.5% (wt/vol), 30 day) was 0. The Grade ([5]; 5.0% (wt/vol), 3 day) was 0, the Grade ([5]; 5.0% (wt/vol), 13 day) was 0 and the Grade ([5]; 5.0% (wt/vol), 30 day) was 0. For the same molecule, the “B. subtillis growth grade, 3 day” value ([6]; 0.5% weight/volume) was 4 (1000 to 10,000 colonies countable (thus 10,000 CFU/mL to 100,000 CFU/mL)), the “B. subtillis growth grade, 14 day” value ([6]; 0.5% weight/volume) was 4 (1000 to 10,000 colonies countable (thus 10,000 CFU/mL to 100,000 CFU/mL)) and the “B. subtillis growth grade, 30 day” value ([6]; 0.5% weight/volume) was 4 (1000 to 10,000 colonies countable (thus 10,000 CFU/mL to 100,000 CFU/mL)). The “B. subtillis growth grade, 3 day” value ([6]; 1.25% weight/volume) was 4 (1000 to 10,000 colonies countable (thus 10,000 CFU/mL to 100,000 CFU/mL)), the “B. subtillis growth grade, 14 day” value ([6]; 1.25% weight/volume) was 4 (1000 to 10,000 colonies countable (thus 10,000 CFU/mL to 100,000 CFU/mL)) and the “B. subtillis growth grade, 30 day” value ([6]; 1.25% weight/volume) was 4 (1000 to 10,000 colonies countable (thus 10,000 CFU/mL to 100,000 CFU/mL)). The “B. subtillis growth grade, 3 day” value ([6]; 2.5% weight/volume) was 3 (100 to 1000 colonies (thus 1000 to 10,000 CFU/mL)), the “B. subtillis growth grade, 14 day” value ([6]; 2.5% weight/volume) was 2 (52 to 100 colonies counted (thus 520 to 1000 CFU/mL)) and the “B. subtillis growth grade, 30 day” value ([6]; 2.5% weight/volume) was 1 (0 to 51 colonies counted (thus 10 to 510 CFU/mL based on 0.1-mL sample)). For the same molecule, the “B. subtillis growth grade, 3 day” value ([6]; 5.0% weight/volume) was 1 (0 to 51 colonies counted (thus 10 to 510 CFU/mL based on 0.1-mL sample)), the “B. subtillis growth grade, 14 day” value ([6]; 5.0% weight/volume) was 0 and the “B. subtillis growth grade, 30 day” value ([6]; 5.0% weight/volume) was 0.
